Reference: patent US20060154990A1, “Use of MEK inhibitors in treating abnormal cell growth” (AGOURON PHARMACEUTICALS, INC., priority 2004, published 2006)
Where “and” joins values, the source holds several entries; their conditions need not be identical. Equal values may be shown once.

Experiments:
[1] = tested on: ERK phosphorylation in tumor cells; assay: ERK phosphorylation in tumor cells grown in culture with 10% serum; assay type: cell-based; conditions: read-out: IC50, reducing ERK phosphorylation
pERK in MiaPaCa2 tumors = assay: Tumor pERK inhibition and PK-PD in MiaPaCa2 xenograft; design: species or system mice; conditions: Mus musculus, MIA PaCa-2, 24 h, 25 mg/kg oral, read-out: Ex vivo % pERK inhibition at 24 h
[2] = Plasma concentrations associated with antitumor efficacy in mice; assay type: in vivo; conditions: mouse, oral, C26 and ZR-75-1 tumor models in mice
[3] = Metabolites of [14C] Compound 1 in cryopreserved hepatocytes; assay type: in vitro ADME, human; conditions: [C-14] Compound 1 10 μM, 180 mins
Protocol: (§1) Incubations were performed in hepatocytes for 3 hours and liver microsomes for 1.5 hours and were stopped with the addition of methanol. HPLC, in conjuction with ionspray 3D iontrap mass spectrometry, and simultaneous radioactive monitoring were used to detect and identify the resulting metabolites.
(§2) Metabolite identification of radiolabeled Compound 1 was performed after incubation with rat, dog, monkey and human cryopreserved hepatocytes and liver microsomes. […] Besides glucuronidation, metabolites derived from other clearance pathways are also observed. For instance, M 15 (acid cleavage product) accounts for 11% of the total radioactivity in the human chromatogram.

[4] = as above; assay type: in vitro ADME, dog; conditions: [C-14] Compound 1 10 μM, 180 mins
Protocol: as §1, §2

[5] = Metabolites of [14C] Compound 1 in liver microsomes; assay type: in vitro ADME, monkey; conditions: [C-14] Compound 1 10 μM, 90 mins
Protocol: as §1
(§3) This acid cleavage product is further metabolized to form hydroxylated (M 11, 16% in rat) and hydroxylated, defluorinated products (M 17, 19% in rat).

[6] = as above; assay type: in vitro ADME, dog; conditions: [C-14] Compound 1 10 μM, 90 mins
Protocol: as §1, §3

[7] = as above; assay type: in vitro ADME, rat; conditions: [C-14] Compound 1 10 μM, 90 mins
Protocol: as §1, §3

[8] = Pilot food effect assessment of plasma pharmacokinetics; conditions: for AUC(0-24) Change % / Cmax Change %: fed versus fasted; for Cmax / Tmax / AUC(0-t): human, plasma, oral
Protocol: A pilot food effect evaluation was conducted on Day 1 of Cycle 1 (ClDl) and Day 1 of Cycle 2 (C1D2).

[9] = Plasma pharmacokinetics after multiple oral doses in advanced cancer patients
Protocol: Pharmacokinetic data are presented for the first 38 subjects.
Blood samples were collected from patients into a purple-top potassium EDTA Vacutainer tube. Following mixing with gentle inversion (8-10 times), tubes were centrifuged within 20 minutes at 1000×g for 15 minutes, to harvest plasma. Plasma samples were stored at −20° C. until analysis.
The following results are based on preliminary pharmacokinetic parameters from the 38 subjects, estimated using nominal collection times and quality-controlled, non quality-assured bioanalytical data. Pharmacokinetic parameters were determined by the non-compartmental method using WINNONLIN Professional Edition (Version 4.1). […] The maximum observed concentration (Cmax) was obtained by inspection of the concentration data. The time to reach the Cmax was the first time at which Cmax is observed and obtained by inspection of the data. The pre-dose concentration (Ctrough) was obtained by inspection of the concentration data.

[10] = 1 mg BID, melanoma, individual patient
[11] = 1 mg QD, breast, individual patient
[12] = 1 mg QD, melanoma, individual patients
[13] = 2 mg BID, colon, individual patient
[14] = 2 mg BID, lung, individual patient
[15] = 2 mg BID, melanoma, individual patients
[16] = 4 mg BID, melanoma, individual patient
[17] = 15 mg BID, breast, individual patient
[18] = 15 mg BID, melanoma, individual patient
[19] = 20 mg BID continuous, melanoma, individual patients
[20] = 30 mg BID, melanoma, individual patient
[21] = patients, 1 mg BID, C1D21, fasting, mean
[22] = patients, 1 mg QD, C1D21, fasting, mean
[23] = patients, 2 mg BID, C1D21, fasting, mean
[24] = patients, 15 mg BID, C1D21, fasting, mean
[25] = patients, 20 mg BID continuous, C1D21, fasting, mean

O=C(NOC[C@H](O)CO)c1ccc(F)c(F)c1Nc1ccc(I)cc1F [Compound 1, N-[(R)-2,3-dihydroxy-propoxy]-3,4-difluoro-2-(2-fluoro-4-iodo-phenylamino)-benzamide]
IC50 [1]: 0.59 nM
inhibition at 25 mg/kg (pERK in MiaPaCa2 tumors): 93%
AUC(0-t) ([2]; read-out: lowest plasma AUC(0-24) associated with meaningful in vivo antitumor efficacy): 1180 to 1880 ng·h/mL
Cmax ([2]; read-out: lowest plasma Cmax associated with meaningful in vivo antitumor efficacy): 260 to 428 ng/mL
% ROI Human [3]: 15.68%
% ROI Dog [4]: 50.45%
% ROI Monkey [5]: 71.38%
% ROI Dog [6]: 81.16%
% ROI Rat [7]: 52.30%
doses at which Grade 3 rashes were seen (human, in vivo): above 15 mg BID
effect on serum (C×P) product (human, in vivo): no notable effect
MTD (patients, dosing 21 days of a 28-day cycle): 20 mg BID
AUC(0-24) Change % ([8]; 1 mg BID, individual patients): −76% and 390%
Cmax Change % ([8]; 1 mg BID, individual patients): −82% and 161%
AUC(0-24) Fasted ([8]; 1 mg BID, individual patients): 998 ng·h/mL and 133 ng·h/mL
AUC(0-24) Fed ([8]; 1 mg BID, individual patients): 244 ng·h/mL and 652 ng·h/mL
Cmax Fasted ([8]; 1 mg BID, individual patients): 181 ng/mL and 21.6 ng/mL
Cmax Fed ([8]; 1 mg BID, individual patients): 56.4 ng/mL
AUC(0-24) Change % ([8]; 2 mg BID, individual patients): −38% and 138% and 74% and 1%
Cmax Change % ([8]; 2 mg BID, individual patients): −62% and −29% and −28% and −36%
AUC(0-24) Fasted ([8]; 2 mg BID, individual patients): 874 ng·h/mL and 526 ng·h/mL and 454 ng·h/mL
AUC(0-24) Fed ([8]; 2 mg BID, individual patients): 369 ng·h/mL and 2080 ng·h/mL and 914 ng·h/mL and 456 ng·h/mL
Cmax Fasted ([8]; 2 mg BID, individual patients): 77.5 ng/mL and 173 ng/mL and 71.9 ng/mL and 88.7 ng/mL
Cmax Fed ([8]; 2 mg BID, individual patients): 29.5 ng/mL and 122 ng/mL and 52.1 ng/mL and 56.7 ng/mL
Tmax Fed ([8]; 2 mg BID, individual patients): 8 h
AUC(0-24) Change % ([8]; 4 mg BID, individual patients): −7% and −20% and −18% (2×)
Cmax Change % ([8]; 4 mg BID, individual patients): −25% and −49% (2×) and −57%
AUC(0-24) Fasted ([8]; 4 mg BID, individual patients): 1060 ng·h/mL and 721 ng·h/mL and 919 ng·h/mL
AUC(0-24) Fed ([8]; 4 mg BID, individual patients): 849 ng·h/mL and 590 ng·h/mL and 754 ng·h/mL
Cmax Fasted ([8]; 4 mg BID, individual patients): 65.5 ng/mL and 157 ng/mL and 114 ng/mL
Cmax Fed ([8]; 4 mg BID, individual patients): 80.7 ng/mL and 58.4 ng/mL and 68.0 ng/mL
Tmax Fasted ([8]; 4 mg BID, individual patients): 1 h
AUC(0-24) Change % ([8]; 15 mg BID, individual patients): −14% and −67% and −27%
Cmax Change % ([8]; 15 mg BID, individual patients): −59% and −80% and −50%
AUC(0-24) Fasted ([8]; 15 mg BID, individual patients): 2880 ng·h/mL and 4880 ng·h/mL
AUC(0-24) Fed ([8]; 15 mg BID, individual patients): 4700 ng·h/mL and 957 ng·h/mL and 3580 ng·h/mL
Cmax Fasted ([8]; 15 mg BID, individual patients): 1120 ng/mL and 464 ng/mL and 641 ng/mL
Cmax Fed ([8]; 15 mg BID, individual patients): 459 ng/mL and 92.0 ng/mL and 319 ng/mL
AUC(0-24) Change % ([8]; 20 mg BID, individual patients): −6% and −2% and −15%
Cmax Change % ([8]; 20 mg BID, individual patients): −57% and −32% and −34%
AUC(0-24) Fasted ([8]; 20 mg BID, individual patients): 4340 ng·h/mL and 6820 ng·h/mL and 3360 ng·h/mL
AUC(0-24) Fed ([8]; 20 mg BID, individual patients): 4060 ng·h/mL and 6700 ng·h/mL and 2860 ng·h/mL
Cmax Fasted ([8]; 20 mg BID, individual patients): 1180 ng/mL and 596 ng/mL
Cmax Fed ([8]; 20 mg BID, individual patients): 358 ng/mL and 797 ng/mL and 393 ng/mL
coefficient of variation (CV) for AUC(0-24) ([8]; fed state): 78%
Cmax ([8]; 1 mg, Cmax Fed, 1 mg BID, individual patients): 33.4 ng/mL
Tmax ([8]; 1 mg, Tmax Fasted, 1 mg BID, individual patients): 1 h
Tmax ([8]; 1 mg, Tmax Fed, 1 mg BID, individual patients): 3 h
AUC(0-t) ([8]; 2 mg, AUC(0-24) Fasted, 2 mg BID, individual patients): 594 ng·h/mL
Tmax ([8]; 2 mg, Tmax Fasted, 2 mg BID, individual patients): 1 h
Tmax ([8]; 2 mg, Tmax Fed, 2 mg BID, individual patients): 6 h
AUC(0-t) ([8]; 4 mg, AUC(0-24) Fasted, 4 mg BID, individual patients): 705 ng·h/mL
AUC(0-t) ([8]; 4 mg, AUC(0-24) Fed, 4 mg BID, individual patients): 654 ng·h/mL
Cmax ([8]; 4 mg, Cmax Fed, 4 mg BID, individual patients): 49.1 ng/mL
Tmax ([8]; 4 mg, Tmax Fed, 4 mg BID, individual patients): 6 h
AUC(0-t) ([8]; 15 mg, AUC(0-24) Fasted, 15 mg BID, individual patients): 5460 ng·h/mL
Tmax ([8]; 15 mg, Tmax Fasted, 15 mg BID, individual patients): 1 h
Tmax ([8]; 15 mg, Tmax Fed, 15 mg BID, individual patients): 4 h
Cmax ([8]; 20 mg, Cmax Fasted, 20 mg BID, individual patients): 839 ng/mL
Tmax ([8]; 20 mg, Tmax Fasted, 20 mg BID, individual patients): 1 h
Tmax ([8]; 20 mg, Tmax Fed, 20 mg BID, individual patients): 4 h
delay of peak plasma levels ([8]; taken with a high fat meal): 2 to 7 h
Compound 1 AUC(0-24), Day 21 [9, 10]: 275 ng·h/mL
Compound 1 Css, avg [9, 10]: 11 ng/mL
Compound 1 AUC(0-24), Day 21 [9, 11]: 130 ng·h/mL
Compound 1 Css, avg [9, 11]: 5.4 ng/mL
Compound 1 AUC(0-24), Day 21 [9, 12]: 170 ng·h/mL and 112 ng·h/mL
Compound 1 Css, avg [9, 12]: 7.1 ng/mL and 4.7 ng/mL
Compound 1 AUC(0-24), Day 21 [9, 13]: 898 ng·h/mL
Compound 1 Css, avg [9, 13]: 37 ng/mL
Compound 1 AUC(0-24), Day 21 [9, 14]: 943 ng·h/mL
Compound 1 Css, avg [9, 14]: 39 ng/mL
Compound 1 AUC(0-24), Day 21 [9, 15]: 785 ng·h/mL and 2020 ng·h/mL
Compound 1 Css, avg [9, 15]: 33 ng/mL and 84 ng/mL
Compound 1 AUC(0-24), Day 21 ([9]; 4 mg BID, lung, individual patient): 1974 ng·h/mL
Compound 1 AUC(0-24), Day 21 [9, 16]: 1426 ng·h/mL
Compound 1 Css, avg [9, 16]: 59 ng/mL
Compound 1 AUC(0-24), Day 21 [9, 17]: 7680 ng·h/mL
Compound 1 Css, avg [9, 17]: 320.0 ng/mL
Compound 1 AUC(0-24), Day 21 [9, 18]: 2480 ng·h/mL
Compound 1 Css, avg [9, 18]: 103.3 ng/mL
Compound 1 AUC(0-24), Day 21 [9, 19]: 5480 ng·h/mL and 5800 ng·h/mL
Compound 1 Css, avg [9, 19]: 228.3 ng/mL and 241.7 ng/mL
Compound 1 AUC(0-24), Day 21 ([9]; 20 mg BID, melanoma, individual patient): 10560 ng·h/mL
Compound 1 AUC(0-24), Day 21 ([9]; 30 mg BID, colon, individual patient): 12000 ng·h/mL
Compound 1 AUC(0-24), Day 21 [9, 20]: 12920 ng·h/mL
Compound 1 Css, avg [9, 20]: 538.3 ng/mL
overall coefficient of variation (CV) for AUC(0-24) ([9]; fasted state, inter-subject variability): 39%
elimination plasma half-life ([9]; patients): 5 to 16 h
AUC(0-24) [9, 21]: 338 ng·h/mL
Ctrough [9, 21]: 9.17 ng/mL
AUC(0-24) [9, 22]: 143 ng·h/mL
Cmax [9, 22]: 22.3 ng/mL
Ctrough [9, 22]: 3.00 ng/mL
Tmax [9, 22]: 2 h
AUC(0-24) [9, 23]: 1161 ng·h/mL
Ctrough [9, 23]: 27.4 ng/mL
Ctrough ([9]; patients, 4 mg BID, C1D21, fasting, mean): 28.0 ng/mL
AUC(0-24) [9, 24]: 5687 ng·h/mL
Ctrough [9, 24]: 142 ng/mL
AUC(0-24) [9, 25]: 6572 ng·h/mL
Cmax [9, 25]: 989 ng/mL
Ctrough [9, 25]: 83.7 ng/mL
T1/2 [9, 25]: 5.1 h
Tmax [9, 25]: 2 h
Ctrough ([9]; patients, 20 mg BID, C1D21, fasting, mean): 112 ng/mL
Ctrough ([9]; patients, 30 mg BID, C1D21, fasting, mean): 157 ng/mL
